Experimental data reported in ChEMBL document CHEMBL1201862, “PubChem BioAssay data set” (2004).
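These data come from cells grown in 96-well plates and exposed to compound for 48 hours at five concentrations. GI50: concentration for 50% inhibition of growth.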 Active and inactive are the calls of the source. No stated cut-off is given here; in the data, active = GI50 up to about 1.1 µM and inactive = higher.

Assays:
Test in all cases: growth of human tumour cells (NCI), 48 h
786-0 = tested on: 786-0
A498 = tested on: A498
A549 = tested on: A549
ACHN = tested on: ACHN
CAKI-1 = tested on: CAKI-1
CCRF-CEM = tested on: CCRF-CEM
COLO 205 = tested on: COLO 205
DU-145 = tested on: DU-145
EKVX = tested on: EKVX
HCC 2998 = tested on: HCC 2998
HCT-15 = tested on: HCT-15
HL-60 = tested on: HL-60
HOP-62 = tested on: HOP-62
HOP-92 = tested on: HOP-92
HT-29 = tested on: HT-29
Hs-578T = tested on: Hs-578T
IGROV-1 = tested on: IGROV-1
K562 = tested on: K562
KM12 = tested on: KM12
LOX IMVI = tested on: LOX IMVI
M14 = tested on: M14
MCF7 = tested on: MCF7
MDA-MB-231 = tested on: MDA-MB-231
MDA-MB-435 = tested on: MDA-MB-435
MDA-N = tested on: MDA-N
MOLT-4 = tested on: MOLT-4
Malme-3M = tested on: Malme-3M
NCI-H226 = tested on: NCI-H226
NCI-H23 = tested on: NCI-H23
NCI-H460 = tested on: NCI-H460
NCI-H522 = tested on: NCI-H522
NCI/ADR-RES = tested on: NCI/ADR-RES
OVCAR-3 = tested on: OVCAR-3
OVCAR-4 = tested on: OVCAR-4
OVCAR-8 = tested on: OVCAR-8
PC-3 = tested on: PC-3
RPMI-8226 = tested on: RPMI-8226
RXF 393 = tested on: RXF 393
SF-268 = tested on: SF-268
SF-295 = tested on: SF-295
SF-539 = tested on: SF-539
SK-MEL-28 = tested on: SK-MEL-28
SK-MEL-2 = tested on: SK-MEL-2
SK-MEL-5 = tested on: SK-MEL-5
SK-OV-3 = tested on: SK-OV-3
SNB-19 = tested on: SNB-19
SNB-75 = tested on: SNB-75
SR = tested on: SR
SW-620 = tested on: SW-620
T47D = tested on: T47D
TK-10 = tested on: TK-10
U-251 = tested on: U-251
UACC-257 = tested on: UACC-257
UACC-62 = tested on: UACC-62
UO-31 = tested on: UO-31
BT-549 = tested on: BT-549
HCT-116 = tested on: HCT-116
OVCAR-5 = tested on: OVCAR-5
SN12C = tested on: SN12C

For `CC(=O)O/C=C\OC1CCCC1`, the GI50 (786-0) was > 100 µM (inactive), the GI50 (A498) was > 100 µM (inactive) and the GI50 (A549) was > 100 µM (inactive). The GI50 (ACHN) was > 100 µM (inactive), the GI50 (CAKI-1) was > 100 µM (inactive) and the GI50 (CCRF-CEM) was 21.9 µM (inactive). For the same molecule, the GI50 (COLO 205) was > 100 µM (inactive), the GI50 (DU-145) was > 100 µM (inactive) and the GI50 (EKVX) was > 100 µM (inactive). The GI50 (HCC 2998) was > 100 µM (inactive), the GI50 (HCT-15) was over 100 µM and the GI50 (HL-60) was > 100 µM (inactive). For the same molecule, the GI50 (HOP-62) was > 100 µM (inactive), the GI50 (HOP-92) was > 100 µM (inactive) and the GI50 (HT-29) was > 100 µM (inactive). The GI50 (Hs-578T) was > 100 µM (inactive), the GI50 (IGROV-1) was > 100 µM (inactive) and the GI50 (K562) was > 100 µM (inactive). For the same molecule, the GI50 (KM12) was > 100 µM (inactive), the GI50 (LOX IMVI) was > 100 µM (inactive) and the GI50 (M14) was > 100 µM (inactive). For the same molecule, the GI50 (MCF7) was > 100 µM (inactive), the GI50 (MDA-MB-231) was > 100 µM (inactive) and the GI50 (MDA-MB-435) was > 100 µM (inactive). The GI50 (MDA-N) was > 100 µM (inactive), the GI50 (MOLT-4) was > 100 µM (inactive) and the GI50 (Malme-3M) was > 100 µM (inactive). For the same molecule, the GI50 (NCI-H226) was > 100 µM (inactive), the GI50 (NCI-H23) was > 100 µM (inactive) and the GI50 (NCI-H460) was > 100 µM (inactive). The GI50 (NCI-H522) was > 100 µM (inactive), the GI50 (NCI/ADR-RES) was > 100 µM (inactive) and the GI50 (OVCAR-3) was > 100 µM (inactive). For the same molecule, the GI50 (OVCAR-4) was > 100 µM (inactive), the GI50 (OVCAR-8) was > 100 µM (inactive) and the GI50 (PC-3) was > 100 µM (inactive). For the same molecule, the GI50 (RPMI-8226) was > 100 µM (inactive), the GI50 (RXF 393) was > 100 µM (inactive) and the GI50 (SF-268) was > 100 µM (inactive). The GI50 (SF-295) was > 100 µM (inactive), the GI50 (SF-539) was > 100 µM (inactive) and the GI50 (SK-MEL-28) was > 100 µM (inactive). The GI50 (SK-MEL-2) was > 100 µM (inactive), the GI50 (SK-MEL-5) was > 100 µM (inactive) and the GI50 (SK-OV-3) was > 100 µM (inactive). The GI50 (SNB-19) was > 100 µM (inactive), the GI50 (SNB-75) was 55 µM (inactive) and the GI50 (SR) was > 100 µM (inactive). The GI50 (SW-620) was > 100 µM (inactive), the GI50 (T47D) was > 100 µM (inactive) and the GI50 (TK-10) was > 100 µM (inactive). For the same molecule, the GI50 (U-251) was > 100 µM (inactive), the GI50 (UACC-257) was > 100 µM (inactive) and the GI50 (UACC-62) was > 100 µM (inactive). For the same molecule, the GI50 (UO-31) was > 100 µM (inactive).
For `O=C1Nc2c(Cl)cc(Cl)cc2/C1=N/N=C/c1ccccc1O`, the GI50 (786-0) was 19.4 µM (inactive), the GI50 (A498) was 18.7 µM (inactive) and the GI50 (A549) was 29.2 µM (inactive). The GI50 (ACHN) was 29.2 µM (inactive), the GI50 (BT-549) was 15.1 µM (inactive) and the GI50 (CAKI-1) was 19.4 µM (inactive). The GI50 (CCRF-CEM) was 21.5 µM (inactive), the GI50 (COLO 205) was 16.4 µM (inactive) and the GI50 (EKVX) was 11.5 µM (inactive). The GI50 (HCC 2998) was 17.9 µM (inactive), the GI50 (HCT-116) was 17.5 µM (inactive) and the GI50 (HCT-15) was 17.8 µM. The GI50 (HL-60) was 21.1 µM (inactive), the GI50 (HOP-62) was 17.2 µM (inactive) and the GI50 (HOP-92) was 27.1 µM (inactive). The GI50 (HT-29) was 20.4 µM (inactive), the GI50 (Hs-578T) was 26.5 µM (inactive) and the GI50 (IGROV-1) was 26.1 µM (inactive). The GI50 (K562) was 21.2 µM (inactive), the GI50 (KM12) was 26.4 µM (inactive) and the GI50 (LOX IMVI) was 16.3 µM (inactive). The GI50 (M14) was 23.1 µM (inactive), the GI50 (MCF7) was 30 µM (inactive) and the GI50 (MDA-MB-231) was 19.8 µM (inactive). For the same molecule, the GI50 (MDA-MB-435) was 21.7 µM (inactive), the GI50 (MDA-N) was 17.4 µM (inactive) and the GI50 (MOLT-4) was 20.7 µM (inactive). For the same molecule, the GI50 (Malme-3M) was 27.9 µM (inactive), the GI50 (NCI-H226) was 27.2 µM (inactive) and the GI50 (NCI-H23) was 19.5 µM (inactive). The GI50 (NCI-H460) was 14.7 µM (inactive), the GI50 (NCI/ADR-RES) was 19.5 µM (inactive) and the GI50 (OVCAR-3) was 16.3 µM (inactive). For the same molecule, the GI50 (OVCAR-4) was 27.6 µM (inactive), the GI50 (OVCAR-5) was 21.5 µM (inactive) and the GI50 (OVCAR-8) was 21.4 µM (inactive). For the same molecule, the GI50 (PC-3) was 19.5 µM (inactive), the GI50 (RXF 393) was 21.2 µM (inactive) and the GI50 (SF-295) was 22.5 µM (inactive). The GI50 (SF-539) was 20.6 µM (inactive), the GI50 (SK-MEL-28) was 20.1 µM (inactive) and the GI50 (SK-MEL-2) was 19.5 µM (inactive). The GI50 (SK-MEL-5) was 20.4 µM (inactive), the GI50 (SK-OV-3) was 30.6 µM (inactive) and the GI50 (SN12C) was 18.3 µM (inactive). The GI50 (SNB-19) was 61.8 µM (inactive), the GI50 (SNB-75) was 23.5 µM (inactive) and the GI50 (SR) was 16.3 µM (inactive). The GI50 (SW-620) was 22 µM (inactive), the GI50 (TK-10) was 36.8 µM (inactive) and the GI50 (U-251) was 17.2 µM (inactive). The GI50 (UACC-257) was 23.5 µM (inactive), the GI50 (UACC-62) was 17.2 µM (inactive) and the GI50 (UO-31) was 27.6 µM (inactive).
In the case of `COC(=O)Cc1cccc2c1CCC2=O`, the GI50 (786-0) is reported as > 100 µM (inactive), the GI50 (A498) is reported as > 100 µM (inactive) and the GI50 (A549) is reported as > 100 µM (inactive). The GI50 (ACHN) was > 100 µM (inactive), the GI50 (CCRF-CEM) was > 100 µM (inactive) and the GI50 (COLO 205) was > 100 µM (inactive). The GI50 (DU-145) was > 100 µM (inactive), the GI50 (EKVX) was > 100 µM (inactive) and the GI50 (HCC 2998) was > 100 µM (inactive). The GI50 (HCT-116) was > 100 µM (inactive), the GI50 (HCT-15) was over 100 µM and the GI50 (HL-60) was > 100 µM (inactive). The GI50 (HOP-62) was > 100 µM (inactive), the GI50 (HOP-92) was > 100 µM (inactive) and the GI50 (HT-29) was > 100 µM (inactive). The GI50 (Hs-578T) was > 100 µM (inactive), the GI50 (IGROV-1) was > 100 µM (inactive) and the GI50 (K562) was > 100 µM (inactive). For the same molecule, the GI50 (KM12) was > 100 µM (inactive), the GI50 (LOX IMVI) was > 100 µM (inactive) and the GI50 (M14) was > 100 µM (inactive). For the same molecule, the GI50 (MCF7) was > 100 µM (inactive), the GI50 (MDA-MB-231) was > 100 µM (inactive) and the GI50 (MDA-MB-435) was > 100 µM (inactive). The GI50 (MDA-N) was > 100 µM (inactive), the GI50 (MOLT-4) was > 100 µM (inactive) and the GI50 (Malme-3M) was > 100 µM (inactive). For the same molecule, the GI50 (NCI-H226) was > 100 µM (inactive), the GI50 (NCI-H23) was > 100 µM (inactive) and the GI50 (NCI-H460) was > 100 µM (inactive). For the same molecule, the GI50 (NCI-H522) was > 100 µM (inactive), the GI50 (NCI/ADR-RES) was > 100 µM (inactive) and the GI50 (OVCAR-3) was > 100 µM (inactive). The GI50 (OVCAR-4) was > 100 µM (inactive), the GI50 (OVCAR-5) was > 100 µM (inactive) and the GI50 (OVCAR-8) was > 100 µM (inactive). The GI50 (PC-3) was > 100 µM (inactive), the GI50 (RPMI-8226) was > 100 µM (inactive) and the GI50 (RXF 393) was > 100 µM (inactive). The GI50 (SF-268) was > 100 µM (inactive), the GI50 (SF-295) was > 100 µM (inactive) and the GI50 (SF-539) was > 100 µM (inactive). For the same molecule, the GI50 (SK-MEL-28) was > 100 µM (inactive), the GI50 (SK-MEL-5) was > 100 µM (inactive) and the GI50 (SK-OV-3) was > 100 µM (inactive). The GI50 (SN12C) was > 100 µM (inactive), the GI50 (SNB-19) was > 100 µM (inactive) and the GI50 (SNB-75) was > 100 µM (inactive). For the same molecule, the GI50 (SR) was > 100 µM (inactive), the GI50 (SW-620) was > 100 µM (inactive) and the GI50 (T47D) was > 100 µM (inactive). The GI50 (TK-10) was > 100 µM (inactive), the GI50 (U-251) was > 100 µM (inactive) and the GI50 (UACC-257) was > 100 µM (inactive). The GI50 (UACC-62) was > 100 µM (inactive) and the GI50 (UO-31) was > 100 µM (inactive).
